Source: patent US20260356809A1 (The United States of America, as represented by the …, priority 2022, published 2026)
Where two headings read alike, the source gives them in different places.

Key:
D2LR [1] = target: T1, D2LR (Homo sapiens, UniProt P14416); type: cell-based; settings: miniG recruitment assay
T1 construct: expressed in transfected cells; host or cells: HEK 293T, transient

[2] = system: cocaine self-administration in rats; test: cocaine self-administration under progressive ratio (PR) break-point; type: in vivo, Long-Evans rats; settings: i.p. 30 min prior
5-HT2C [3] = target: T2, 5-HT2C (Homo sapiens, UniProt P28335); test: 5-HT2C IP-1, agonist; type: cell-based
T2 sequence (P28335 33-458): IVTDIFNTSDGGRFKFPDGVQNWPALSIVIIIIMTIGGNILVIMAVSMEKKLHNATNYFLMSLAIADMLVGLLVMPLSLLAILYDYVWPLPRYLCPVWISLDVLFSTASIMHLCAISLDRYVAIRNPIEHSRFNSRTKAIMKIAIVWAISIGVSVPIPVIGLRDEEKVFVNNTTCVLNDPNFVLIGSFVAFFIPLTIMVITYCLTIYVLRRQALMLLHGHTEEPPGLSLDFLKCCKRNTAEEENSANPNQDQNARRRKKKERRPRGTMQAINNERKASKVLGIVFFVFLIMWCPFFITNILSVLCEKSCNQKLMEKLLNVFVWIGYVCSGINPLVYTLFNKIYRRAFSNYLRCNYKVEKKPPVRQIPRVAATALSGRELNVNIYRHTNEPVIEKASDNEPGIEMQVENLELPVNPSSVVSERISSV

D2LR [4] = target: T1, D2LR; type: cell-based; settings: GPA GαoA assay
5-HT1A [5] = target: T3, 5-HT1A (Homo sapiens, UniProt P08908); test: 5-HT1A [35S]GTPγS, agonist; type: biochemical
T3 sequence (P08908 1-422): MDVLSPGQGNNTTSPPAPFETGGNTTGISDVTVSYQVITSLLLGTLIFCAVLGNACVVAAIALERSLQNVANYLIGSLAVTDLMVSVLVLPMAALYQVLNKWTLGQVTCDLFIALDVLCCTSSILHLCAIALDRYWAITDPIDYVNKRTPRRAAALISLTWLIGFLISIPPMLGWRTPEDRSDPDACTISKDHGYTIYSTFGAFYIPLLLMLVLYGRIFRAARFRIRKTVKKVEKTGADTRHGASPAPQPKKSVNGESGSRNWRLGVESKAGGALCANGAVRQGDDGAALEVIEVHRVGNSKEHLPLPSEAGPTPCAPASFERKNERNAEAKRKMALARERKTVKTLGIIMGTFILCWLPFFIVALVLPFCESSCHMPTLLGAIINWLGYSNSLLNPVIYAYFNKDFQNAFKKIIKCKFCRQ

5-HT2C [6] = target: T2, 5-HT2C; test: 5-HT2C IP-1, antagonist; type: cell-based
5-HT2B [7] = target: T4, 5-HT2B (Homo sapiens, UniProt P41595); test: 5-HT2B IP-1, agonist; type: cell-based; settings: agonist mode
T4 sequence (P41595 whole entry, species assumed): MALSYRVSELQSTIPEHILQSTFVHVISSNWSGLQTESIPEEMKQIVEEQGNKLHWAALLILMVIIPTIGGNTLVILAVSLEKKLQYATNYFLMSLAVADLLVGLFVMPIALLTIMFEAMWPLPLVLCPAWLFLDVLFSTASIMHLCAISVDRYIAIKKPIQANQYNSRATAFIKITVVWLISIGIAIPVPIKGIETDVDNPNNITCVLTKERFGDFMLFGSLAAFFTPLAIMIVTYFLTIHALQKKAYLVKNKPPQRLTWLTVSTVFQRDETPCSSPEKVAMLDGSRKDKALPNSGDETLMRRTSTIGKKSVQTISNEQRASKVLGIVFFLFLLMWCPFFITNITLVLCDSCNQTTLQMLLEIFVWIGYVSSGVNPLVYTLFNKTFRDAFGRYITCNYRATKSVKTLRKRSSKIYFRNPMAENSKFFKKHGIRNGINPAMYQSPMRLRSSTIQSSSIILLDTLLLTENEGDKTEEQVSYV

5-HT2A [8] = target: T5, 5-HT2A (Homo sapiens, UniProt P28223); test: 5-HT2A IP-1, agonist; type: cell-based; settings: agonist mode
T5 sequence (P28223 whole entry, species assumed): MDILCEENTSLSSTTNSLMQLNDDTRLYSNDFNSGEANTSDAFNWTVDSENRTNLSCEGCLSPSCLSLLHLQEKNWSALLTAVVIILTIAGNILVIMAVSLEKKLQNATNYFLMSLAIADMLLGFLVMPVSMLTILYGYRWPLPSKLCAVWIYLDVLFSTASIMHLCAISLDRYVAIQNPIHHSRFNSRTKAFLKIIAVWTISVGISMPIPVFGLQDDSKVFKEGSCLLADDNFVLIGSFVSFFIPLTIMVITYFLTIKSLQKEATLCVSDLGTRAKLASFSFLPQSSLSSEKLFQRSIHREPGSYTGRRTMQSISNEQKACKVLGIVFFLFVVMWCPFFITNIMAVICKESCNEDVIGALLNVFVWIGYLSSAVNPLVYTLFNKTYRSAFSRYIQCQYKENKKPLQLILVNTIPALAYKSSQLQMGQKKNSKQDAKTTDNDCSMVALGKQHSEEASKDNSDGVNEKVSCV

5-HT2B [9] = target: T4, 5-HT2B; test: 5-HT2B IP-1, antagonist; type: cell-based; settings: for 5-HT2B IP-1 Emax ± SEM: antagonist mode
5-HT2A [10] = target: T5, 5-HT2A; type: cell-based; settings: antagonist mode
5-HT2B [11] = target: T4, 5-HT2B; test: 5-HT2B off-target binding, [3H]5-HT; settings: read-out: 5-HT2B Ki ± SEM
D4R = target: T6, D4R (Homo sapiens, UniProt P21917); test: D4R off-target binding, [3H]-spiperone; settings: read-out: D4R Ki ± SEM
T6 sequence (P21917 1-419): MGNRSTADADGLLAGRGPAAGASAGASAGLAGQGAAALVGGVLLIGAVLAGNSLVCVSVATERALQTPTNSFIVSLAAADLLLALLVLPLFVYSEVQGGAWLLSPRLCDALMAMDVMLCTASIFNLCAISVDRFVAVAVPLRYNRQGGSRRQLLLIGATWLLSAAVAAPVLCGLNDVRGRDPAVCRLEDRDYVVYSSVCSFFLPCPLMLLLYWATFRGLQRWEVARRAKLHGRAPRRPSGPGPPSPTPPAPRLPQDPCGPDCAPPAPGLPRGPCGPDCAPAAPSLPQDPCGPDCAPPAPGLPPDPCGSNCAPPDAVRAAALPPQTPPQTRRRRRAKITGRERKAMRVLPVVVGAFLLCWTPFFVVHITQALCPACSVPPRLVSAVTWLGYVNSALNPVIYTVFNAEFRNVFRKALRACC

5-HT1A [12] = target: T3, 5-HT1A; test: 5-HT1A off-target binding, [3H]-8-OH-DPAT; settings: read-out: 5-HT1A Ki ± SEM

T1 sequence (P14416 whole entry): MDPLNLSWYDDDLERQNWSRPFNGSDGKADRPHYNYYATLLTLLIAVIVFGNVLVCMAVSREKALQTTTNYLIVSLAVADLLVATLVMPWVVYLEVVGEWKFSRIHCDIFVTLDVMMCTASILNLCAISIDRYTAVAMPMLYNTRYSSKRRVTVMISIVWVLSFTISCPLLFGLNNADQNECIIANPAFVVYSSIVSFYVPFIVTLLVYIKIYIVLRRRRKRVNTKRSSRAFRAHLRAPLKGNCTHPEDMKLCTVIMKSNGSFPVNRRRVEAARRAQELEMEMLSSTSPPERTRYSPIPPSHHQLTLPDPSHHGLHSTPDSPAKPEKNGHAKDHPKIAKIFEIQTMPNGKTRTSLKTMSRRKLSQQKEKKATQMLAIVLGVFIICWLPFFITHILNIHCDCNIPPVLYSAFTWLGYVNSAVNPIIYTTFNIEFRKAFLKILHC

| SMILES | D2R activity in words, miniG assay (D2LR [1]) | effect on lever pressing / PR break-point for cocaine [2] | 5-HT2C IP-1 Emax ± SEM (5-HT2C [3]; agonist mode) [%] | EC50 (5-HT2C [3]; agonist mode, read-out: 5-HT2C IP-1 EC50 ± SEM) [nM] | D2R activity in words, GPA assay (D2LR [4]) | 5-HT1A [35S]GTPγS Emax ± SEM (5-HT1A [5]; agonist mode) [%] | IC50 (5-HT2C [6]) [nM] | 5-HT2C IP-1 Emax ± SEM (5-HT2C [6]; antagonist mode) [%] | EC50 (5-HT2C [3]) [nM] | 5-HT2B IP-1 Emax ± SEM (5-HT2B [7]) [%] | 5-HT2A IP-1 Emax ± SEM (5-HT2A [8]) [%] | 5-HT2B IP-1 Emax ± SEM (5-HT2B [9]) [%] | 5-HT2A IP-1 Emax ± SEM (5-HT2A [10]) [%] | EC50 (5-HT2B [7]; read-out: 5-HT2B IP-1 EC50 ± SEM) [nM] | EC50 (5-HT1A [5]) [nM] | Ki (5-HT2B [11]) [nM] | IC50 (5-HT2B [9]) [nM] | Ki (D4R) [nM] | Ki (5-HT1A [12]) [nM] |
| --- | --- | --- | --- | --- | --- | --- | --- | --- | --- | --- | --- | --- | --- | --- | --- | --- | --- | --- | --- |
| CN(C)C(=O)N[C@H]1CC[C@H](CCN2CCN(c3cccc(Cl)c3Cl)CC2)CC1 [Compound 6a, 3-(trans-4-(2-(4-(2,3-Dichlorophenyl)piperazin-1-yl)ethyl)cyclohexyl)-1,1-dimethylurea] | D2R partial agonists | reduce the reinforcing efficacy of cocaine | 49.2 ± 6.6 | 215 ± 22 | maximal effect similar to quinpirole | 89.6 ± 3.6 | > 5000 | 9.2 ± 2.7 | – | – | – | – | – | – | – | – | – | – | – |
| CCc1cccc(N2CCN(CC[C@H]3CC[C@H](NC(=O)CCOC)CC3)CC2)c1Cl [Compound 13b, N-(trans-4-(2-(4-(2-Chloro-3-ethylphenyl)piperazin-1-yl)ethyl)cyclohexyl)-3-methoxypropanamide] | – | – | – | – | – | – | – | – | 43.5 ± 5.3 | <1 | 25.9 ± 1.9 | 100 ± 0 | 62.7 ± 5.8 | – | – | – | – | – | – |
| COCCC(=O)N[C@H]1CC[C@H](CCN2CCN(c3cccc(OC)c3F)CC2)CC1 [Compound 13c, N-(trans-4-(2-(4-(2-Fluoro-3-methoxyphenyl)piperazin-1-yl)ethyl)cyclohexyl)-3-methoxypropanamide] | full agonists | – | – | – | full agonists | – | – | – | – | <1 | – | 82 ± 18 | – | > 10000 | 121 ± 10 | 29.6 ± 9.5 | 519 ± 81 | 734 ± 16 | 69.9 ± 1.7 |
